From patent publication US20130123355A1, “Fatty acids and metal ions compositions and uses thereof” (priority 2011, published 2013)

Columns and labels:
[1] = system: Patients presenting early symptoms of stroke; assay: Stroke Rehabilitation Assessment of Movement (STREAM); type: in vivo, human; conditions: with standard of care
Experimental: Patients presenting early symptoms of stroke, in addition to being provided standard of care for stroke, are prescribed Mg-DHA or Mg Citrate capsules formulated to provide a daily dose of 150 mg of elemental magnesium or DHA capsules for two weeks when recovery from stroke is assessed.
Patients presenting early symptoms of stroke, in addition to being provided standard of care for stroke, are prescribed Mg-DHA-LysoPC or Mg Citrate capsules prepared and formulated to provide 150 mg of elemental magnesium, or DHA-LysoPC capsules for two weeks when recovery is assessed.
Patients presenting early symptoms of stroke, in addition to being provided standard of care for stroke, are prescribed Mg-EPA or Mg Citrate capsules formulated to provide 150 mg of elemental magnesium, or EPA capsules for two weeks when recovery from stroke is assessed.
Patients presenting early symptoms of stroke, in addition to being provided standard of care for stroke, are prescribed either Zn-DHA or zinc gluconate capsules formulated to provide a daily dosage of 30 mg of elemental Zn, or DHA capsules for two weeks when recovery from stroke is assessed.
Patients presenting early symptoms of stroke, in addition to being provided standard of care for stroke, are prescribed either Zn-DHA-LysoPC or zinc gluconate capsules that provide a daily dosage of 30 mg of elemental Zn, or DHA-LysoPC capsules for two weeks when recovery is assessed.
Patients presenting early symptoms of stroke, in addition to being provided standard of care for stroke, are prescribed either Zn-EPA or zinc gluconate capsules formulated to provide a daily dosage of 30 mg of elemental Zn, or EPA capsules for two weeks when recovery from stroke is assessed.

[2] = system: Sprague-Dawley rats; assay: Forced Swim Test; type: in vivo; conditions: diet
Description: Sprague-Dawley rats are fed diet supplemented with Mg-DHA, Mg Citrate, or DHA. […] Various established parameters of antidepressant activity including reduced immobility time, increased swimming, and increased climbing behavior are quantitated to assess the antidepressant activity.
Sprague-Dawley rats are fed diet supplemented with Mg-DHA-LysoPC, Mg Citrate, or DHA-lysoPC. […] Various established parameters of antidepressant activity including reduced immobility time, increased swimming, and increased climbing behavior are quantitated to assess the antidepressant activity.
Sprague-Dawley rats are fed diet supplemented with Mg-EPA, Mg Citrate, or EPA. […] Various established parameters of antidepressant activity including reduced immobility time, increased swimming, and increased climbing behavior are quantitated to assess the antidepressant activity.
(§1) Sprague-Dawley rats are fed diet supplemented with Zn-DHA, Zinc gluconate, or DHA. On Zn-DHA or Zinc gluconate supplemented diet, rats consume about 1 mg/kg body weight/day of elemental zinc, on a feeding schedule so as to maintain 85% of its free-feeding weight. […] Various established parameters of antidepressant activity including reduced immobility time, increased swimming, and increased climbing behavior are quantitated to assess the antidepressant activity.
as §1, with “Zn-DHA-lysoPC, zinc” for “Zn-DHA, Zinc”, “Zn-DHA-lysoPC” for “Zn-DHA”, “zinc” for “Zinc”
as §1, with “Zn-EPA, zinc” for “Zn-DHA, Zinc”, “EPA.” for “DHA.”, “Zn-EPA” for “Zn-DHA”, “zinc” for “Zinc”
Sprague-Dawley rats are fed diet supplemented with Li-DHA, lithium carbonate, or DHA. […] Various established parameters of antidepressant activity including reduced immobility time, increased swimming, and increased climbing behavior are quantitated to assess the antidepressant activity.
Sprague-Dawley rats are fed diet supplemented with Li-DHA-lysoPC, lithium carbonate, or DHA. […] Various established parameters of antidepressant activity including reduced immobility time, increased swimming, and increased climbing behavior are quantitated to assess the antidepressant activity.
Sprague-Dawley rats are fed diet supplemented with Li-EPA, lithium carbonate, or EPA. […] Various established parameters of antidepressant activity including reduced immobility time, increased swimming, and increased climbing behavior are quantitated to assess the antidepressant activity.

[3] = 30 mg elemental Zn daily for two weeks, compared with the fatty acid alone or zinc gluconate
[4] = about 1 mg/kg body weight/day elemental zinc, compared with the fatty acid alone or zinc gluconate
[5] = 150 mg elemental magnesium daily for two weeks
[6] = about 50 mg/kg/day elemental Mg, compared with the fatty acid alone or Mg Citrate

Row | Compound | STREAM scores, recovery from stroke [1, 3] | immobility time [2, 4] | swimming and climbing behavior [2, 4] | STREAM scores, recovery from stroke [1, 5] | immobility time [2, 6] | swimming and climbing behavior [2, 6]
1 | CC/C=C\C/C=C\C/C=C\C/C=C\C/C=C\CCCC(=O)[O-].CC/C=C\C/C=C\C/C=C\C/C=C\C/C=C\CCCC(=O)[O-].[Zn+2] [Zn-EPA] | statistically significant improvement | reduction | significant increase |  |  | 
2 | CC/C=C\C/C=C\C/C=C\C/C=C\C/C=C\C/C=C\CCC(=O)[O-].CC/C=C\C/C=C\C/C=C\C/C=C\C/C=C\C/C=C\CCC(=O)[O-].[Zn+2] [Zn-DHA] | statistically significant improvement | reduction | significant increase |  |  | 
3 | CC/C=C\C/C=C\C/C=C\C/C=C\C/C=C\CCCC(=O)[O-].CC/C=C\C/C=C\C/C=C\C/C=C\C/C=C\CCCC(=O)[O-].[Mg+2] [Mg-EPA] |  |  |  | statistically significant improvement | reduction | significant increase
4 | CC/C=C\C/C=C\C/C=C\C/C=C\C/C=C\C/C=C\CCC(=O)[O-].CC/C=C\C/C=C\C/C=C\C/C=C\C/C=C\C/C=C\CCC(=O)[O-].[Mg+2] [Mg-DHA] |  |  |  | statistically significant improvement | reduction | significant increase
